Measured values: US8673591B2, “Genetic incorporation of 3-aminotyrosine into reductases” (The Scripps Research Institute, priority 2007, dated 2014)
Where two headings read alike, the source gives them in different places.

Columns and labels:
[1] = molecular target: T1, E. coli ribonucleotide reductase (RNR) (Escherichia coli, UniProt P00452); conditions: inactivation of wt α2β2 by N3ADP/dGTP; 20 s time scale; cited from earlier work
T1 construct: made in house; host or cells: E. coli DH10B (NH2Y-α2s)

DH10B E. coli cells [2] = assay: Toxicity of NH2Y: growth of E. coli in GMML medium and on agar plates; format: cell-based
Description: (§1) Toxicity and uptake of NH2Y. Evolution of an NH2Y-specific aminoacyl-tRNA synthetase (RS) requires that NH2Y is taken up by E. coli, that it is not toxic, and that it is not incorporated into proteins by any endogenous RSs. All three requirements were met by NH2Y. […] The presence of DTT however, caused cells to grow at a rate 25-35% more slowly than those in the presence of only NH2Y or absence of NH2Y/DTT.

DH10B E. coli cells [3] = assay: Qualitative assay for cellular uptake of NH2Y by LC-MS; format: cell-based; conditions: 1 mM NH2Y with or without 0.1 mM DTT
Procedure: Qualitative assay for cellular uptake of NH2Y by LC-MS. The uptake assay was performed as previously described with minor modifications.^48 DH10B E. coli cells were grown to saturation at 37° C. in GMML in the presence of 1 mM NH2Y and 0.1 mM DTT and subsequently harvested and lysed as outlined previously. Chromatography of the crude extract was performed on a Zorbax SB-C18 (5 μm, 4.6×150 mm) column with a linear gradient from 5% to 25% MeCN in 0.1% TFA solution over 8 min at 0.5 mL/min. Under these conditions, NH2Y elutes at ˜13% MeCN. For HPLC-ESI-MS analysis, NH2Y standard solutions were prepared in water.
as §1

[4] = cited from earlier work

Q: Which “initial Y122• lost (equivalent amount of N• formed)” value [1] does the source give for [N-]=[N+]=N[C@@H]1[C@H](O)[C@@H](COP(=O)(O)OP(=O)(O)O)O[C@H]1n1cnc2c(N)ncnc21 [N3ADP, 2′-Azido-2′-deoxyadenosine-5′-diphosphate] here?
A: Its value is 50-60%.

Q: For O[C@H](CS)[C@H](O)CS (racemic) [DTT, DL-dithiothreitol], which slower growth rate (DH10B E. coli cells [2]; Escherichia coli, 0.1 mM) is on record?
A: Its slower growth rate is 25-35%.

Q: What does the source list for Nc1cc(C[C@H](N)C(=O)O)ccc1O [NH2Y, 3-aminotyrosine]?
A: growth rates in the presence of substance (DH10B E. coli cells [2]; NH2Y 1 mM, GMML medium): not significantly affected; cellular uptake (HPLC and ESI-MS of cell extracts) (DH10B E. coli cells [3]): observed in all cell extracts; reduction potential ([4]; pH 7.0): 0.64 V; reduction potential lower than that of Y ([4]; pH 7.0): 0.19 V; reduction potential lower than that of Y ([4]; pH 7): 190 mV
